Results from PMC11078827, “Characterization and functional evidence for Orf2 of Streptomyces sp. 139 as a novel dipeptidase E” (Applied Microbiology and Biotechnology, 2024).

Experiments:
[1] = molecular target: T1, Orf2 (Streptomyces tendae, UniProt A0ABX5ZPB3, D147A); assay: absorbance at […] nm, activity assay; assay type: biochemical; settings: 50 mM imidazole pH 7.5, 40 °C; substrate of the standard assay, not named again for the mutants
T1 construct: gene F3L20_11885; full-length orf2 (744 bp) in pET30a(+), His-tagged (mutants in pET28a), E. coli BL21(DE3), Ni-NTA

[2] = molecular target: T2, Orf2 (Streptomyces tendae, UniProt A0ABX5ZPB3, D198A); assay: absorbance at […] nm, activity assay; assay type: biochemical; settings: 50 mM imidazole pH 7.5, 40 °C; substrate of the standard assay, not named again for the mutants
T2 construct: gene F3L20_11885; full-length orf2 (744 bp) in pET30a(+), His-tagged (mutants in pET28a), E. coli BL21(DE3), Ni-NTA

[3] = molecular target: T3, Orf2 (Streptomyces tendae, UniProt A0ABX5ZPB3, S134A); assay: absorbance at […] nm, activity assay; assay type: biochemical; settings: 50 mM imidazole pH 7.5, 40 °C; substrate of the standard assay, not named again for the mutants
T3 construct: gene F3L20_11885; full-length orf2 (744 bp) in pET30a(+), His-tagged (mutants in pET28a), E. coli BL21(DE3), Ni-NTA

[4] = molecular target: T4, Orf2 (Streptomyces tendae, UniProt A0ABX5ZPB3, H170A); assay: absorbance at […] nm, activity assay; assay type: biochemical; settings: 50 mM imidazole pH 7.5, 40 °C; substrate of the standard assay, not named again for the mutants
T4 construct: gene F3L20_11885; full-length orf2 (744 bp) in pET30a(+), His-tagged (mutants in pET28a), E. coli BL21(DE3), Ni-NTA

[5] = substrate: N[C@@H](CC(=O)O)C(=O)Nc1ccc([N+](=O)[O-])cc1; assay: purified protein; assay type: biochemical, Streptomyces tendae; settings: 50 mM imidazole pH 7.5, 40 °C, 10 min, substrate 3.91-500 μM, hydrolysis of chromogenic substrate

T4 sequence (A0ABX5ZPB3 entry or part of it H170A): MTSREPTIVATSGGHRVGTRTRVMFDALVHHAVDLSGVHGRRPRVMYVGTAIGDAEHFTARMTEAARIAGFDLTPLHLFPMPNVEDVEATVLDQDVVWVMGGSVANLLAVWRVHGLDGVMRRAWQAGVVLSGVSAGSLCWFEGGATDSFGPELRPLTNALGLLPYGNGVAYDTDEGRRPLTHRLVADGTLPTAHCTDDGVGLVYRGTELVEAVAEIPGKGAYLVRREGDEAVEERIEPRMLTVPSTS
T2 sequence (A0ABX5ZPB3 entry or part of it D198A): as the sequence (A0ABX5ZPB3 entry or part of it H170A) above, with A170H, D198A counted along it
T3 sequence (A0ABX5ZPB3 entry or part of it S134A): as the sequence (A0ABX5ZPB3 entry or part of it H170A) above, with S134A, A170H counted along it
T1 sequence (A0ABX5ZPB3 entry or part of it D147A): as the sequence (A0ABX5ZPB3 entry or part of it H170A) above, with D147A, A170H counted along it

Row | Molecule | absorbance at 405 nm, activity assay [1] | absorbance at 405 nm, activity assay [2] | absorbance at 405 nm, activity assay [3] | absorbance at 405 nm, activity assay [4] | Km [5] [µM] | kcat [5] [s⁻¹]
1 | N[C@@H](CC(=O)O)C(=O)Nc1ccc([N+](=O)[O-])cc1 [Asp-ρNA] | all of these mutant proteins lost their activity (data not shown) | all of these mutant proteins lost their activity (data not shown) | all of these mutant proteins lost their activity (data not shown) | all of these mutant proteins lost their activity (data not shown) | – | –
2 | Orf2 (Streptomyces tendae) (protein, full-length orf2 (744 bp) in pET30a(+), His-tagged (mutants in pET28a), E. coli BL21(DE3), Ni-NTA) MTSREPTIVATSGGHRVGTRTRVMFDALVHHAVDLSGVHGRRPRVMYVGTAIGDAEHFTARMTEAARIAGFDLTPLHLFPMPNVEDVEATVLDQDVVWVMGGSVANLLAVWRVHGLDGVMRRAWQAGVVLSGVSAGSLCWFEGGATDSFGPELRPLTNALGLLPYGNGVHYDTDEGRRPLTHRLVADGTLPTAHCTDDGVGLVYRGTELVEAVAEIPGKGAYLVRREGDEAVEERIEPRMLTVPSTS | – | – | – | – | 1709 | 5.628
